Structures can show the parent of a compound that is named as a salt.
Tested on: IRE1-XBP1s (HEK293 T-REx cells stably expressing the XBP1-RLuc splicing reporter)
Test: IRE1-XBP1s activation Assay (XBP1-RLuc splicing reporter, luminescence relative to thapsigargin, with or without IRE1 inhibitor 4μ8C)
Type: cell-based
Conditions: 18 h, compound 10 μM, luminescence as percentage signal relative to thapsigargin (Tg) (500 nM, 18 h)
Method: IRE1-XBP1s activation Assay: HEK293 T-REx cells stably expressing the XBP1-RLuc splicing reporter were treated with an IRE1-XBP1s activator provided herein (10 μM) in the presence or absence of the IRE1 active site inhibitor 4μ8C (32 μM) for 18 h. Luminescence was shown as the percentage signal relative to thapsigargin (Tg) (500 nM, 18 h).

SMILES	activation at 10 µM [%]
O=C(Nc1cnn(CC(=O)N2CCC[C@H](Oc3ccc(C(F)(F)F)cn3)C2)c1)[C@H]1COc2ccccc2O1 [Compound 188, (R)—N-(1-(2-oxo-2-((S)-3-((5-(trifluoromethyl)pyridin-2-yl)oxy)piperidin-1-yl)ethyl)-1H-pyrazol-4-yl)-2,3-dihydrobenzo[b][1, 4]dioxine-2-carboxamide]	< 30
Cc1ccc(OCCN(C)C(=O)Cn2cc(NC(=O)C3CCCC3Nc3ccnc(F)n3)cn2)cc1 (stereo not shown) [Compound 166]	< 30
Cc1ccc(C(F)(F)c2ccc(N(C)C(=O)Cn3cc(NC(=O)CCOc4ccccc4)cn3)cc2)cc1 [Compound 58]	< 30
Cc1ccc(OC2CCCC23CN(C(=O)Cn2cc(NC(=O)C4CNc5ccccc5O4)cn2)C3)cc1 (stereo not shown) [Compound 198, N-(1-(2-oxo-2-(5-(p-tolyloxy)-2-azaspiro[3.4]octan-2-yl)ethyl)-1H-pyrazol-4-yl)-3,4-dihydro-2H-benzo[b][1, 4]oxazine-2-carboxamide]	< 30
Cc1ccc(OCCN(C)C(=O)Cn2cc(NC(=O)c3ccc(Oc4ccccc4)cc3)cn2)cc1 [Compound 3]	< 30
Cc1ccc(OC2CCCC23CN(C(=O)Cn2cc(NC(=O)CCOc4cccc(C)n4)cn2)C3)cc1 (stereo not shown) [Compound 196]	≥ 50
Cc1ccc(OC2CCCCN(C(=O)Cn3cc(NC(=O)CCOc4ccccc4)cn3)C2)cc1 (stereo not shown) [Compound 117]	≥ 50
Cc1ccc(OCCN(C)C(=O)Cn2cc(NC(=O)c3nc4ccccc4o3)cn2)cc1 [Compound 153]	30 to 50
O=C(CCOc1ccc(Cl)cc1)Nc1cnn(CC(=O)N2CCCCC(Oc3ccccc3)C2)c1 (stereo not shown) [Compound 50]	< 30
Cc1ccc(OCCN(C)C(=O)Cn2cc(NC(=O)C3CNc4ccccc4C3)cn2)cc1 (stereo not shown) [Compound 66]	< 30
Cc1ccc(O[C@H]2CCCN(C(=O)Cn3cc(NC(=O)C4CC(Oc5ccncc5)C4)cn3)C2)cc1 (stereo partly shown) [Compound 152]	≥ 50
Cc1ccc(OC2CCC23CN(C(=O)Cn2cc(NC(=O)C4CC(Oc5c(F)cncc5C(C)C)C4)cn2)C3)cc1 (stereo not shown) [Compound 163]	≥ 50
Cc1ccc(O[C@H]2CCCN(C(=O)Cn3cc(NC(=O)C4CC(Oc5cccc(C)n5)C4)cn3)C2)cc1 (stereo partly shown) [Compound 151]	< 30
O=C(CCOc1ccccc1)Nc1cnn(CC(=O)N2CCCN(c3ccc(F)cn3)CC2)c1 [Compound 33]	< 30
Cc1ccc(OCCN(C)C(=O)Cn2cc(NC(=O)CC3CNc4cc(F)ccc4O3)cn2)cc1 (stereo not shown) [Compound 96, 2-(4-(2-(6-fluoro-3,4-dihydro-2H-benzo[b][1,4]oxazin-2-yl)acetamido)-1H-pyrazol-1-yl)-N-methyl-N-(2-(p-tolyloxy)ethyl)acetamide]	30 to 50
COc1ccccc1OCCC(=O)Nc1cnn(CC(=O)N(C)c2ccc(Oc3ccc(C)cc3)cc2)c1 [Compound 25]	30 to 50
CN(C(=O)Cn1cc(NC(=O)CCOc2ccccc2)cn1)c1ccc(OC2CCC(C)(C)CC2)c(F)c1 [Compound 119]	< 30
Cc1ccc(C2CCN(C(=O)Cn3cc(NC(=O)CCOc4ccccc4)cn3)C2)cc1 (stereo not shown) [Compound 18]	< 30
Cc1ccc(C2=CC(C)(C)Oc3cc(N(C)C(=O)Cn4cc(NC(=O)CCOc5ccccc5)cn4)ccc32)cc1 [Compound 59, N-(1-(2-((2,2-dimethyl-4-(p-tolyl)-2H-chromen-7-yl)(methyl)amino)-2-oxoethyl)-1H-pyrazol-4-yl)-3-phenoxypropanamide]	< 30
Cc1ccc(Oc2ccc(N(C)C(=O)Cn3cc(NC(=O)CCOc4ccccc4Cl)cn3)cc2)cc1 [Compound 24]	30 to 50

SMILES	activation at 10 µM [%]
Cc1ccc(OCCN(C)C(=O)Cn2cc(NC(=O)C3COc4cccc(C(C)C)c4O3)cn2)cc1 (stereo not shown) [Compound 126]	< 30
Cc1ccc(OC2CCC23CN(C(=O)Cn2cc(NC(=O)C4COc5ccccc5O4)cn2)C3)cc1 (stereo not shown) [Compound 197]	< 30
Cc1ccc(OCCN(C)C(=O)Cn2cc(NC(=O)C3CC(Nc4ncc(F)cn4)C3)cn2)cc1 (stereo not shown) [Compound 170]	< 30
Cc1ccc(OCCN(C)C(=O)Cn2cc(N(C)C(=O)[C@@H]3CCC(=O)N(Cc4ccccc4)C3)cn2)cc1 [Compound 16]	< 30
Cc1ccc(OCCN(C)C(=O)Cn2cc(NC(=O)C3CCC3Nc3ccnc(F)n3)cn2)cc1 (stereo not shown) [Compound 167]	30 to 50
Cc1ccc(O[C@H]2CCCN(C(=O)Cn3cc(NC(=O)C4CC(Oc5cccnc5N)C4)cn3)C2)cc1 (stereo partly shown) [Compound 107]	30 to 50
Cc1ccc(O[C@H]2CCCN(C(=O)Cn3cc(NC(=O)[C@@H]4CNc5ccccc5O4)cn3)C2)cc1 [Compound 123]	< 30
Cc1c(F)cc(O[C@@H]2CCCN(C(=O)Cn3cc(NC(=O)CCNc4ccnc(F)n4)cn3)C2)cc1F [Compound 173]	30 to 50
Cc1ccc(OC2CCCN(C(=O)Cn3cc(NC(=O)CCOc4ccccc4Cl)cn3)C2)cc1 (stereo not shown) [Compound 39]	≥ 50
COc1ccccc1OCCC(=O)Nc1cnn(CC(=O)N2CCCCC(Oc3ccccc3)C2)c1 (stereo not shown) [Compound 51]	< 30
Cc1ccc(OC2CCC23CN(C(=O)Cn2cc(NC(=O)CCNc4nccc(F)n4)cn2)C3)cc1 (stereo not shown) [Compound 134]	< 30
Cc1ccc(OCCN(C)C(=O)Cn2cc(NC(=O)C3CC(Oc4ccncc4)CCO3)cn2)cc1 (stereo not shown) [Compound 141]	< 30
COc1ccc2c(c1)CC(C(=O)Nc1cnn(CC(=O)N(C)CCOc3ccc(C)cc3)c1)CO2 (stereo not shown) [Compound 63]	< 30
Cc1ccc(OCCN(C)C(=O)Cn2cc(NC(=O)C34CC(Nc5ncc(F)cn5)(C3)C4)cn2)cc1 [Compound 169, 3-[(5-fluoropyrimidin-2-yl)amino]-N-[1-[2-[methyl-[2-(4-methylphenoxy)ethyl]amino]-2-oxo-ethyl]pyrazol-4-yl]bicyclo[1.1.1]pentane-1-carboxamide]	< 30
Cc1ccc(OCCN(C)C(=O)Cn2cc(NC(=O)C3COc4cccc(C)c4O3)cn2)cc1 (stereo not shown) [Compound 125]	30 to 50
CN(CCOc1ccc(C(F)(F)F)cn1)C(=O)Cn1cc(NC(=O)[C@H]2COc3ccccc3O2)cn1 [Compound 192]	30 to 50
Cc1ccc(OCCN(C)C(=O)Cn2cc(NC(=O)C3CCN(c4ccccc4)C3)cn2)cc1 (stereo not shown) [Compound 64]	< 30
Cc1ccc(OC2(C)CCCN(C(=O)Cn3cc(NC(=O)CCOc4ccccc4F)cn3)C2)cc1 (stereo not shown) [Compound 77]	30 to 50
Cc1ccc(O[C@H]2CCCN(C(=O)Cn3cc(NC(=O)CCNc4c(F)cncc4Cl)cn3)C2)cc1 [Compound 183]	≥ 50
Cc1ccc(OCCN(C)C(=O)Cn2cc(NC(=O)c3cnccc3NC(=O)OC(C)(C)C)cn2)cc1 [Compound 111]	≥ 50

SMILES	activation at 10 µM [%]
Cc1ccc(OCCN(C)C(=O)Cn2cc(NC(=O)C3CNc4cccc(F)c4O3)cn2)cc1 (stereo not shown) [Compound 127]	30 to 50
Cc1ccc(OCCN(C)C(=O)Cn2cc(N(C)C(=O)C3=C(c4ccccc4)CCCC3)cn2)cc1 [Compound 205]	< 30
Cc1ccccc1OCCC(=O)Nc1cnn(CC(=O)N(C)c2ccccc2Oc2ccccc2)c1 [Compound 44]	< 30
Cc1ccc(OCCN(C)C(=O)Cn2cc(NC(=O)[C@H]3CC[C@H](Oc4ccccc4)CC3)cn2)cc1 [Compound 5]	< 30
Cc1ccc(OCCN(C)C(=O)Cn2cc(NC(=O)C3CNCC3Nc3ccnc(F)n3)cn2)cc1 (stereo not shown) [Compound 203]	< 30
O=C(CCOc1ccccc1)Nc1cnn(CC(=O)Nc2ccc(OC(F)F)cc2)c1 [Compound 114]	30 to 50
CN(C(=O)Cn1cc(NC(=O)CCOc2ccccc2)cn1)c1ccc(Oc2ccc(C(F)(F)F)cc2)cc1 [Compound 42, N-(1-(2-(methyl(4-(4-(trifluoromethyl)phenoxy)phenyl)amino)-2-oxoethyl)-1H-pyrazol-4-yl)-3-phenoxypropanamide hydrochloride]	< 30
Cc1ccc(OCCN(C)C(=O)Cn2cc(NC(=O)C3CN(c4ccccc4)C3)cn2)cc1 [Compound 138]	< 30
Cc1ccc(OCCN(C)C(=O)Cn2cc(NC(=O)CC3CCc4cc(F)ccc4O3)cn2)cc1 (stereo not shown) [Compound 110]	< 30
Cc1ccc(O[C@@H]2CCCN(C(=O)Cn3cc(NC(=O)CCNc4c(F)cncc4Cl)cn3)C2)cc1 [Compound 184]	≥ 50
Cc1ccc(O[C@H]2CCCN(C(=O)Cn3cc(NC(=O)CCOc4ccccc4F)cn3)C2)cc1 [Compound 71]	≥ 50
Cc1ccc(OCCN(C)C(=O)Cn2cc(NC(=O)[C@H]3C[C@@H](c4ccccc4)C3)cn2)cc1 [Compound 6]	≥ 50
Cc1ccccc1OCCC(=O)Nc1cnn(CC(=O)N(C)c2ccc(Oc3ccc(C(F)(F)F)cc3)cc2)c1 [Compound 53]	< 30
COc1ccc(OCCC(=O)Nc2cnn(CC(=O)N3CCCC(Oc4ccc(C)cc4)C3)c2)cc1 (stereo not shown) [Compound 41, 3-(4-methoxyphenoxy)-N-(1-(2-oxo-2-(3-(p-tolyloxy)piperidin-1-yl)ethyl)-1H-pyrazol-4-yl)propanamide hydrochloride]	< 30
Cc1ccc(Oc2ccccc2N(C)C(=O)Cn2cc(NC(=O)CCOc3ccccc3)cn2)cc1 [Compound 57]	< 30
Cc1ccc(OCCN(C)C(=O)Cn2cc(NC(=O)CC3CN(C(=O)OC(C)(C)C)c4cc(F)ccc4O3)cn2)cc1 (stereo not shown) [Compound 97]	≥ 50
Cc1ccc(OCCN(C)C(=O)Cn2cc(NC(=O)OC3CCCN(c4nccc(F)n4)C3)cn2)cc1 (stereo not shown) [Compound 131, 1-(4-fluoropyrimidin-2-yl)piperidin-3-yl (1-(2-(methyl (2-(p-tolyloxy)ethyl)-amino)-2-oxoethyl)-1H-pyrazol-4-yl)carbamate]	< 30
Cc1ccc(Oc2ccc(N(C)C(=O)Cn3cc(NC(=O)CCOc4cccc(C)c4)cn3)cc2)cc1 [Compound 26]	< 30

From patent US20260193244A1 (Protego Biopharma, Inc., priority 2022, published 2026)
